Measured values: patent US20200325239A1, “Modulation of Aminopeptidase N/CD13 and Rheumatoid Arthritis” (THE REGENTS OF THE UNIVERSITY OF MICHIGAN, priority 2016, published 2020)

Assays:
Type in all cases: cell-based, human
[1] = system: CD13 mRNA; assay: Regulation of CD13 mRNA in RA FLS by cytokines (qRT-PCR); settings: time course 0 to 72 hours; for CD13 mRNA in RA FLS, ratio to untreated FLS (in words): IFNγ 1000 U/ml, TNFα 10 ng/ml, IL-17 10 ng/ml
Protocol: FIG. 4. […] FLS were stimulated over a time course of 0-72 hours with IFNγ (1000 U/ml), TNFα (10 ng/ml), or IL-17 (10 ng/ml). Cells were harvested and processed for either mRNA (A), surface expression (B), total cell lysate CD13 (C), or total CD13 in supernatant (D). mRNA was measured by qRT-PCR. CD13 was measured on the surface with anti-CD13 (1D7) and flow cytometry. Cell lysate and supernatant CD13 concentrations were measured by CD13 ELISA. Gating was done to isolate the major cell population and exclude debris and dead cells. Data is expressed as a ratio to unstimulated FLS at the same time point in either ΔΔCt normalized to GAPD (mRNA), mean fluorescent intensity corrected for background florescence with MsIg staining (surface), or CD13 concentration in lysate or supernatant. A n=3 B-D n=1 *p≤0.05.
All procedures involving specimens obtained from human subjects were performed under a protocol approved by the University of Michigan Institutional Review Board. Fibroblast-like synoviocytes (FLS) were cultured from human synovial tissue obtained at arthroplasty or synovectomy from RA joints by digestion with 1% collagenase and separation through a […] (16). FLS were uniformly positive for the FLS marker Cadherin-11. The diagnosis of RA required at least four of the seven 1987 American College of Rheumatology criteria (17). FLS were maintained in Connaught Medical Research Laboratory ([…]) medium (20% fetal bovine serum (FBS), 2 mM L-glutamine, and 1% penicillin/streptomycin), and were used between passages 4 and 10. To avoid the confounding effect of serum CD13, cultures were moved to serum-free Dulbecco's Modified Eagle's medium/F-12 with Peprogrow serum replacement (Peprotech, Rocky Hill, N.J.) before harvesting. Some cultures were treated with protease inhibitors for 48 hours in serum-free medium: pepstatin A (Sigma-Aldrich, St. Louis, Mo.), aprotinin (Sigma-Aldrich, St. Louis, Mo.), leupeptin (Sigma-Aldrich, St. Louis, Mo.), GM6001 InSolution (EMD Millipore, Darmstadt, Germany), or E-64 (Thermo Scientific, Waltham, Mass.). Other cultures were treated with cytokines: recombinant human interferon-γ (rhIFNγ, […]), recombinant human tumor necrosis factor-α (rhTNFα, 10 ng/ml), or recombinant human interleukin-17 (rhIL-17,10 ng/ml) (Peprotech, Rocky Hill, N.J.) for 0, 0.5, 1, 2, 6, 8, 12, 24, 48, or 72 hours in serum-free medium.
mRNA was isolated from FLS (3 wells of a 6-well plate) using the RNAeasy Kit and Qiacube (Qiagen, Venlo, Netherlands). cDNA was prepared using a High Capacity cDNA Kit (Life Technologies, Carlsbad, Calif.). Quantitative reverse transcription polymerase chain reaction (qRT-PCR) was done using TaqMan Gene Expression Assays on a 7500 Real Time PCR System (Life Technologies, Carlsbad, Calif.).
CD13 is present at much higher levels in RA synovial fluid compared to OA. Cultured RA and OA FLS, however, expressed similar amounts of CD13 (10). One possible explanation for this observation is that the pro-inflammatory cytokines in the RA joint could contribute to upregulation of CD13 production by FLS. Cultured RA FLS were treated with IFNγ, TNFα, or IL-17 over a time course from 0 to 72 hours. […] Data shown are a ratio of cytokine-treated FLS CD13 mRNA to untreated FLS CD13 mRNA at the same time point.

[2] = system: RA FLS; assay: FLS growth assay (Essen IncuCyte, percent confluence); settings: antibodies 25 or 50 ng/ml, actinonin 10 μM, bestatin 50 μM, primarily between 24 hours and 120 hours
Protocol: (§1) FIG. 5. […] FLS were seeded on 96-well plates overnight. An Essen Incucyte system was used for both growth (A) and migration (B) assays. Growth was calculated as the difference in percent confluence from time 0. Migration was measured in a scratch-wound assay using relative wound density. All data are expressed as a ratio to untreated FLS of the same cell line. mean±SEM n≥4 (*p≤0.05).
(§2) RA FLS were seeded on Essen Image Lock 96-well plates (Essen Bioscience, Ann Arbor, Mich.) overnight at either 3,000 cells/well for growth or 30,000 cells/well for migration. For growth, the 20% FBS CMRL media was removed and cells were washed 1× with PBS. 100 μl of medium alone (control) or medium containing anti-CD3 (25 or 50 ng/ml, OKT3, used as a non-reactive isotype control antibody in this experiment), anti-CD13 1D7 or WM15 (Biolegend, San Diego, Calif.) (25 or 50 ng/ml), or CD13 chemical inhibitors actinonin (Sigma-Aldrich, St. Louis, Mo.) or bestatin (Sigma-Aldrich, St. Louis, Mo.) (10 μM and 50 μM, respectively) was added to the wells. Images and confluence data were collected using an Essen IncuCyte (Essen Bioscience, Ann Arbor, Mich.). For the scratch-wound migration assay, wounds were made via the Essen scratch-wound tool in the seeded 96-well plate. Plates were then washed 2× with PBS and medium was added similar to the growth plates. Data were collected and the confluence or relative wound density calculated by the Essen IncuCyte.

[3] = system: RA FLS; assay: FLS scratch-wound migration assay (relative wound density); settings: antibodies 25 or 50 ng/ml; actinonin 10 μM, bestatin 50 μM; primarily from 36 hours to 72 hours
Protocol: as §1
as §2, with “Plates were then washed 2× with PBS and medium was added similar to the growth plates.” left out

[4] = system: RA FLS; assay: ELISA for the secretion of CD13 from RA FLS incubated with TIMPs; settings: 0.6 μg/ml, 48 hours, FLS from 3 RA patients
Protocol: To determine the role of tissue inhibitors of metalloproteinases (TIMPs) in the secretion of CD13, RA FLS (10 aliquots of 10^5, or 10^6, cells) were plated in 6-well plates in RPMI with 10% FBS. When RA FLS became 85% confluent, media was switched to RPMI containing 0.1% FBS. RA FLS were incubated with TIMP-1, TIMP-2 or both for 48 hours. ELISA was performed to determine the levels of soluble CD13 in the conditioned media. Conditioned media (100 μl/well) was added to 96-well plates (Thermo Scientific, USA) for 2 hours at room temperature. After blocking, anti-CD13 antibody, WM15, (10 μg/ml, BioLegend) was added for 2 hours at 37° C. Anti-mouse IgG HRP-linked antibody (1:1000) was added for 1 hour. After adding the TMB substrate solution (BD Biosciences) and stop solution (2N H2SO4), the optical density (OD) was measured at 450 nm by a microplate reader (BIO-TEK, USA). We used FLS from three different RA patients. Both inhibitors were used at 0.6 μg/ml. These concentrations are recommended by the manufacture to inhibit matrix metalloproteinases (MMPs).

[5] = system: RA FLS; assay: CD13 shedding from FLS cultures with protease inhibitors (CD13 ELISA of supernatant and cell lysate); settings: 48 hours
Protocol: Fibroblast-like synoviocytes (FLS) were cultured from human synovial tissue obtained at arthroplasty or synovectomy from RA joints by digestion with 1% collagenase and separation through a 7004 cell strainer (16). […] FLS were maintained in Connaught Medical Research Laboratory (CARL) medium (20% fetal bovine serum (FBS), 2 mM L-glutamine, and 1% penicillin/streptomycin), and were used between passages 4 and 10. To avoid the confounding effect of serum CD13, cultures were moved to serum-free Dulbecco's Modified Eagle's medium/F-12 with Peprogrow serum replacement (Peprotech, Rocky Hill, N.J.) before harvesting. Some cultures were treated with protease inhibitors for 48 hours in serum-free medium: pepstatin A (Sigma-Aldrich, St. Louis, Mo.), aprotinin (Sigma-Aldrich, St. Louis, Mo.), leupeptin (Sigma-Aldrich, St. Louis, Mo.), GM6001 InSolution (EMD Millipore, Darmstadt, Germany), or E-64 (Thermo Scientific, Waltham, Mass.).
Cells were lysed in cell lysis buffer (10% NP-40, 10% PMSF, 1% Iodoacetamide, and 0.1% E-64 in TSA) for one hour on ice and spun to remove debris. FLS culture supernatants were concentrated by centrifugation through an Amicon Ultracel 30K filter (EMD Millipore, Darmstadt, Germany).
High-binding ELISA plates were coated with the anti-CD13 monoclonal antibody WM15 (Biolegend, San Diego, Calif.) in 0.1M carbonate buffer pH 9.5 overnight, and then blocked with 1× Animal Free Block (Vector Laboratories, Burlingame, Calif.) overnight. Samples were then applied to the plates either whole or diluted in block with 10 mM EDTA. A standard curve was prepared using recombinant human CD13 (R&D Systems, Minneapolis, Minn.) in block with 10 mM EDTA. 1D7 (i.e., 591.1D7.34, University of Michigan Hybridoma Core), an anti-CD13 monoclonal antibody that was recently described (10), was biotinylated (Biotin-XX Microscale Protein Labeling Kit, Life Technologies, Carlsbad, Calif.) and applied overnight (19). Streptavidin-HRP (Biolegend, San Diego, Calif.) was then added. Between steps, plates were washed with PBS plus 0.05% Tween. The plates were visualized with TMB substrate (BD Biosciences, San Jose, Calif.), stopped with 2M H2SO4, and analyzed on a colorimetric plate reader.
To test this mechanism, various protease inhibitors were added to FLS cultures, including: pepstatin A (aspartic), aprotinin (serine), leupeptin (serine/cysteine), GM6001 (metalloproteinase), and E-64 (cysteine). […] All inhibitors were used at established working concentrations.

[6] = system: FLS; assay: CD13 release and cellular CD13 after siRNA knockdown with or without GM6001 (CD13 ELISA); settings: 25 μM GM6001, 48 hours
Protocol: FLS were grown to confluence, then transfected with siRNA using an Amaxa nucleofector kit. Cells were grown to 75% confluence, then switched to serum-free growth media (Peprogrow) supplemented with 1 ng/ml IL-1 and 10 ng/ml TNFα for 48 hours with or without 25 μM GM6001.
High-binding ELISA plates were coated with the anti-CD13 monoclonal antibody WM15 (Biolegend, San Diego, Calif.) in 0.1M carbonate buffer pH 9.5 overnight, and then blocked with 1× Animal Free Block (Vector Laboratories, Burlingame, Calif.) overnight. Samples were then applied to the plates either whole or diluted in block with 10 mM EDTA. A standard curve was prepared using recombinant human CD13 (R&D Systems, Minneapolis, Minn.) in block with 10 mM EDTA. […] The plates were visualized with TMB substrate (BD Biosciences, San Jose, Calif.), stopped with 2M H2SO4, and analyzed on a colorimetric plate reader.
FLS were transfected by electroporation using an Amaxa Nucleofector and the nucleofector kit for dermal fibroblasts (NHDF, Lonza, Basel, Switzerland). […] Transfection of GFP control plasmid was measured by fluorescent microscopy (EVOSfl, AMG, Mill Creek, Wash.) and flow cytometry (BD Biosciences FACSCalibur, San Jose, Calif.). Knockdown efficiency was measured by qRT-PCR of MMP14 mRNA at the time of harvest for CD13 measurements. […]

recombinant human interferon-γ [IFNγ]
CD13 mRNA in RA FLS, ratio to untreated FLS (in words) [1]: upregulated | time of peak CD13 mRNA expression [1]: around 48 hours

CC(C)C[C@H](NC(=O)[C@@H](O)[C@H](N)Cc1ccccc1)C(=O)O [Bestatin, bestatin]
RA FLS cell growth (change in confluence, ratio to untreated FLS) [2]: significant slowing of cell growth | RA FLS migration in wound healing assay (relative wound density, ratio to untreated) [3]: not found to inhibit FLS migration

recombinant human tumor necrosis factor-α [TNFα]
CD13 mRNA in RA FLS, ratio to untreated FLS (in words) [1]: upregulated | time of peak CD13 mRNA expression [1]: around 48 hours

tissue inhibitor of metalloproteinase 1 [TIMP-1]
CD13 secretion in conditioned media (OD, ELISA) [4]: decrease was not observed

CCCCC[C@H](CC(=O)NO)C(=O)N[C@H](C(=O)N1CCC[C@H]1CO)C(C)C [actinonin]
RA FLS cell growth (change in confluence, ratio to untreated FLS) [2]: strongest inhibitor of cell proliferation | RA FLS cell growth (change in confluence, ratio to untreated FLS) ([2]; listed as Actinonin): significant slowing of cell growth | RA FLS migration in wound healing assay (relative wound density, ratio to untreated) [3]: significant decrease

tissue inhibitor of metalloproteinase 2 [TIMP-2]
CD13 secretion in conditioned media (OD, ELISA) [4]: significant decrease

aprotinin
increase in CD13 expression in FLS cell lysates ([5]; Aprotinin 100 nM): 22.17±6.18%

CNC(=O)[C@H](Cc1c[nH]c2ccccc12)NC(=O)[C@@H](CC(=O)NO)CC(C)C [GM6001]
CD13 in FLS cell lysates (change, in words) ([5]; FLS cultures, serum-free media with protease inhibitor): No significant difference | reduction of CD13 protein found in the supernatant ([5]; FLS cultures, serum-free media, GM6001 25 μM, CD13 ELISA): 93.62±4.78% | block of CD13 release from FLS (in words) ([5]; protease inhibitors at established working concentrations): found to block CD13 release | CD13 in lysates of GM6001-treated cells [6]: significantly increased | release of CD13 into the culture supernatant (in words) ([6]; serum-free media with 1 ng/ml IL-1 and 10 ng/ml TNFα): prevented the release of CD13

recombinant human interleukin-17 [IL-17]
CD13 mRNA in RA FLS, ratio to untreated FLS (in words) [1]: upregulated | time of peak CD13 mRNA expression [1]: around 48 hours

CC(=O)N[C@@H](CC(C)C)C(=O)N[C@@H](CC(C)C)C(=O)N[C@H](C=O)CCCNC(=N)N [Leupeptin, leupeptin]
increase in CD13 released ([5]; FLS cultures, serum-free media, Leupeptin 10 μM, supernatant): 48.40±14.29%
